According to article PMC8704707 (Pharmaceuticals, 2021):
Converted amounts (≈) assume the structure as drawn. “And” between values parts separate entries of the source, which are not always exact repeats. Identical values can stand only once. Like-named read-outs stand apart in the source and are kept apart here.

Legend:
[1] = system: Candida albicans ATCC 24443; assay: microbe, parasite or virus in culture; assay type: cell-based
[2] = system: Staphylococcus epidermidis ATCC 12228; assay: Antibacterial microdilution broth method (EUCAST); assay type: cell-based
[3] = system: Trichophyton interdigitale ATCC 9533; assay: microbe, parasite or virus in culture; assay type: cell-based
[4] = system: Candida parapsilosis ATCC 22019; assay: microbe, parasite or virus in culture; assay type: cell-based; conditions: Lodderomyces parapsilosis
Candida krusei ATCC 6258 = assay: microbe, parasite or virus in culture; assay type: cell-based; conditions: Pichia kudriavzevii
[5] = molecular target: AChE from electric eel (EeAChE) (Electrophorus electricus, UniProt O42275); assay: biochemical; assay type: biochemical
[6] = system: Klebsiella pneumoniae ATCC 10031; conditions: for MIC KP 24 h: 24 h incubation; for MIC KP 48 h: 48 h incubation
[7] = system: Escherichia coli ATCC 25922; assay: Antibacterial microdilution broth method (EUCAST); assay type: cell-based
[8] = system: Pseudomonas aeruginosa ATCC 27853; assay: Antibacterial microdilution broth method (EUCAST); assay type: cell-based
[9] = system: Staphylococcus aureus ATCC 29213; assay: Antibacterial microdilution broth method (EUCAST); assay type: cell-based
[10] = system: Candida tropicalis ATCC 750; assay: microbe, parasite or virus in culture; assay type: cell-based
[11] = system: Acinetobacter baumannii ATCC 19606; assay: Antibacterial microdilution broth method (EUCAST); assay type: cell-based
[12] = system: Enterococcus faecalis ATCC 29212; assay: Antibacterial microdilution broth method (EUCAST); assay type: cell-based
[13] = system: methicillin-resistant Staphylococcus aureus ATCC 43300; assay: Antibacterial microdilution broth method (EUCAST); assay type: cell-based; conditions: ATCC 43300 / MRSA
[14] = molecular target: BuChE from equine serum (EqBuChE) (Equus caballus, UniProt P81908); assay: biochemical; conditions: read-out: IC50 BuChE
[15] = system: eight human pathogenic fungi; assay: Antifungal microdilution broth method, whole panel; assay type: cell-based; conditions: not reported in Table 2, read-out: MIC, all fungal strains tested
[16] = ATCC24443, 24 h, read-out: MIC CA 24 h
[17] = ATCC24443, 48 h, read-out: MIC CA 48 h
[18] = ATCC12228, 24 h, read-out: MIC SE 24 h
[19] = ATCC12228, 48 h, read-out: MIC SE 48 h
[20] = ATCC9533, 72 h, read-out: MIC TI 72 h
[21] = ATCC9533, 120 h, read-out: MIC TI 120 h
[22] = ATCC22019, 24 h, read-out: MIC CP 24 h
[23] = ATCC22019, 48 h, read-out: MIC CP 48 h
[24] = ATCC6258, 24 h, read-out: MIC CK 24 h
[25] = ATCC6258, 48 h, read-out: MIC CK 48 h
[26] = mean ± SD, n = three independent experiments, ATCh 40 µM, read-out: IC50 AChE
[27] = ATCC25922, 24 h, read-out: MIC EC 24 h
[28] = ATCC25922, 48 h, read-out: MIC EC 48 h
[29] = ATCC27853, 24 h, read-out: MIC PA 24 h
[30] = ATCC27853, 48 h, read-out: MIC PA 48 h
[31] = ATCC29213, 24 h, read-out: MIC SA 24 h
[32] = ATCC29213, 48 h, read-out: MIC SA 48 h
[33] = ATCC750, 24 h, read-out: MIC CT 24 h
[34] = ATCC750, 48 h, read-out: MIC CT 48 h
[35] = ATCC19606, 24 h, read-out: MIC ACI 24 h
[36] = ATCC19606, 48 h, read-out: MIC ACI 48 h
[37] = ATCC29212, 24 h, read-out: MIC EF 24 h
[38] = ATCC29212, 48 h, read-out: MIC EF 48 h
[39] = mean ± SD, n = three independent experiments, BTCh 40 µM

Chain of AChE from electric eel (EeAChE) (O42275 24-633): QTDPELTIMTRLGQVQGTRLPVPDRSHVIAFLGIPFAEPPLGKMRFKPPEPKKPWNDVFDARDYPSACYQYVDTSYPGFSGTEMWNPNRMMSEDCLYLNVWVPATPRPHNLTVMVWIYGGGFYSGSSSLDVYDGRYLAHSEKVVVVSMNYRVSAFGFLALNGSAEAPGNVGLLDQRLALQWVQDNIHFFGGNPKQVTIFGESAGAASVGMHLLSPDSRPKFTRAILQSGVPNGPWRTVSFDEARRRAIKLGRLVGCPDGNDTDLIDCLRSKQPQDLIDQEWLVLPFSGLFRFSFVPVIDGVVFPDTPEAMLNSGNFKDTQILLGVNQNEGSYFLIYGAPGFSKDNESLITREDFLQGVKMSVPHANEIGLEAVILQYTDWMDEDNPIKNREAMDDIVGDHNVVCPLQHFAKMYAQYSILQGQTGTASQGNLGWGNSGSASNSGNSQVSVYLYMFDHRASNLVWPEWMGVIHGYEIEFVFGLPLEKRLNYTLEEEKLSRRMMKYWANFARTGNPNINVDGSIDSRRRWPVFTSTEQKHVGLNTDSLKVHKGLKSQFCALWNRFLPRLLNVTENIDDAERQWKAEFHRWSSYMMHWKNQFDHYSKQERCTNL
Chain of BuChE from equine serum (EqBuChE) (P81908 whole entry): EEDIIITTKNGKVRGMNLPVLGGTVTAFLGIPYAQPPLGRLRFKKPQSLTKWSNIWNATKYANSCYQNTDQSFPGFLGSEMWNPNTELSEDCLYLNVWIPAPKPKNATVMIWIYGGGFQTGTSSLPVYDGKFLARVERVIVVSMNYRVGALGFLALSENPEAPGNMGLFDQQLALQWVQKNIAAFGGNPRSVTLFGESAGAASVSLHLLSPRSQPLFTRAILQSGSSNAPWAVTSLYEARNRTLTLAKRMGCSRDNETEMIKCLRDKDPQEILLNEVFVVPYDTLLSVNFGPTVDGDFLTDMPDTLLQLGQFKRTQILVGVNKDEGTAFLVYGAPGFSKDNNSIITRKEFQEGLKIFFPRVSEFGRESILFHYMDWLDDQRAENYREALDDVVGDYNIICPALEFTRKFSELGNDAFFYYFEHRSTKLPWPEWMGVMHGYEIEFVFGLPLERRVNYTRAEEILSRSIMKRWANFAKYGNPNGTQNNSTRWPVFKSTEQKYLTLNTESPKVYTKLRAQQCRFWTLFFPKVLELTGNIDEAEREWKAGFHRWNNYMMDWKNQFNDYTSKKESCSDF
Method for HepG2 cells: Cytotoxicity of the tested compounds was measured using the standard hepatic cell line HepG2. The used CellTiter 96® assay is based on the reduction of tetrazolium dye (MTS) in living cells to formazan, which is then determined colorimetrically.

SMILES | MIC [1, 16] [µM] | MIC [2, 18] [µM] | MIC [2, 19] [µM] | Selectivity AChE/BuChE [5] | IC50 [5, 26] [µM] | MIC KP 24 h [6] [µM] | MIC KP 48 h [6] [µM] | MIC [7, 27] [µM] | MIC [7, 28] [µM] | MIC [8, 29] [µM] | MIC [8, 30] [µM] | MIC [9, 31] [µM] | MIC [9, 32] [µM] | MIC [11, 35] [µM] | MIC [11, 36] [µM] | MIC [12, 37] [µM] | MIC [12, 38] [µM] | MIC ([13]; 24 h, read-out: MIC MRSA 24 h) [µM] | MIC ([13]; 48 h, read-out: MIC MRSA 48 h) [µM] | IC50 [14, 39] | also measured
[H]/N=C(\N)NN=Cc1cc(I)ccc1O [Compound 1i, (E)-2-(2-Hydroxy-5-iodobenzylidene)hydrazine-1-carboximidamide] | 500 (≈ 152 µg/mL) | 250 (≈ 76 µg/mL) | 250 (≈ 76 µg/mL) | 1.27 | 25 ± 0.5 | 250 (≈ 76 µg/mL) | 250 (≈ 76 µg/mL) | 250 (≈ 76 µg/mL) | 250 (≈ 76 µg/mL) | 500 (≈ 152 µg/mL) | 500 (≈ 152 µg/mL) | 125 (≈ 38 µg/mL) | 125 (≈ 38 µg/mL) | 500 (≈ 152 µg/mL) | 500 (≈ 152 µg/mL) | 500 (≈ 152 µg/mL) | 500 (≈ 152 µg/mL) | 125 (≈ 38 µg/mL) | 125 (≈ 38 µg/mL) | < 20 µM and 19.8 µM | MIC [1, 17]: 500 µM (≈ 152 µg/mL); MIC [3, 20]: 62.5 µM (≈ 19 µg/mL); MIC [3, 21]: 125 µM (≈ 38 µg/mL); MIC [4, 22]: 250 µM (≈ 76 µg/mL); MIC [4, 23]: 250 µM (≈ 76 µg/mL); MIC (Candida krusei ATCC 6258; [24]): 250 µM (≈ 76 µg/mL); MIC (Candida krusei ATCC 6258; [25]): 250 µM (≈ 76 µg/mL); MIC [10, 33]: 500 µM (≈ 152 µg/mL); MIC [10, 34]: 500 µM (≈ 152 µg/mL)
[H]/N=C(\N)NN=Cc1cc(I)c(O)c(I)c1 [Compound 2b, (E)-2-(4-Hydroxy-3,5-diiodobenzylidene)hydrazine-1-carboximidamide] |  | 250 (≈ 107 µg/mL) | 500 (≈ 215 µg/mL) | 0.87 | 40.3 ± 0.85 | 250 (≈ 107 µg/mL) | 250 (≈ 107 µg/mL) | 500 (≈ 215 µg/mL) | 500 (≈ 215 µg/mL) | > 500 | > 500 | 500 (≈ 215 µg/mL) | 500 (≈ 215 µg/mL) | > 500 | > 500 | 500 (≈ 215 µg/mL) | 500 (≈ 215 µg/mL) | 500 (≈ 215 µg/mL) | 500 (≈ 215 µg/mL) | 46.28 ± 0.29 µM | MIC [15]: ≥ 500 µM
[H]/N=C(\N)NN=Cc1ccc([N+](=O)[O-])s1 [Compound 1o, (E)-2-[(5-Nitrothiophen-2-yl)methylene]hydrazine-1-carboximidamide] | > 500 | 62.5 (≈ 13.3 µg/mL) | 62.5 (≈ 13.3 µg/mL) | 0.11 | 31.7 ± 1.34 | 125 (≈ 26.7 µg/mL) | 125 (≈ 26.7 µg/mL) | 62.5 (≈ 13.3 µg/mL) | 62.5 (≈ 13.3 µg/mL) | 500 (≈ 107 µg/mL) | 500 (≈ 107 µg/mL) | 125 (≈ 26.7 µg/mL) | 250 (≈ 53.3 µg/mL) | 125 (≈ 26.7 µg/mL) | 125 (≈ 26.7 µg/mL) | 250 (≈ 53.3 µg/mL) | 500 (≈ 107 µg/mL) | 125 (≈ 26.7 µg/mL) | 250 (≈ 53.3 µg/mL) | 204 to 286 µM and 286 µM | MIC [1, 17]: > 500 µM; MIC [3, 20]: 250 µM (≈ 53.3 µg/mL); MIC [3, 21]: 250 µM (≈ 53.3 µg/mL); MIC [4, 22]: > 500 µM; MIC [4, 23]: > 500 µM; MIC (Candida krusei ATCC 6258; [24]): 500 µM (≈ 107 µg/mL); MIC (Candida krusei ATCC 6258; [25]): 500 µM (≈ 107 µg/mL); MIC [10, 33]: > 500 µM; MIC [10, 34]: > 500 µM
[H]/N=C(\N)NN=Cc1cc(Cl)cc(Br)c1O [Compound 1k, (E)-2-(3-Bromo-5-chloro-2-hydroxybenzylidene)hydrazine-1-carboximidamide] | 250 (≈ 72.9 µg/mL) | 125 (≈ 36.4 µg/mL) | 250 (≈ 72.9 µg/mL) | 1.92 | 22.4 ± 0.67 | 250 (≈ 72.9 µg/mL) | 250 (≈ 72.9 µg/mL) | 500 (≈ 146 µg/mL) | 500 (≈ 146 µg/mL) | > 500 | > 500 | 250 (≈ 72.9 µg/mL) | 250 (≈ 72.9 µg/mL) | > 500 | > 500 | 500 (≈ 146 µg/mL) | 500 (≈ 146 µg/mL) | 250 (≈ 72.9 µg/mL) | 250 (≈ 72.9 µg/mL) | < 20 µM and 11.7 µM | MIC [1, 17]: 500 µM (≈ 146 µg/mL); MIC [3, 20]: 125 µM (≈ 36.4 µg/mL); MIC [3, 21]: 250 µM (≈ 72.9 µg/mL); MIC [4, 22]: 500 µM (≈ 146 µg/mL); MIC [4, 23]: 500 µM (≈ 146 µg/mL); MIC (Candida krusei ATCC 6258; [24]): 500 µM (≈ 146 µg/mL); MIC (Candida krusei ATCC 6258; [25]): 500 µM (≈ 146 µg/mL); MIC [10, 33]: 500 µM (≈ 146 µg/mL); MIC [10, 34]: 500 µM (≈ 146 µg/mL)
[H]/N=C(\N)NN=Cc1cc(Cl)cc(I)c1O [Compound 1l, (E)-2-(5-Chloro-2-hydroxy-3-iodobenzylidene)hydrazine-1-carboximidamide] | > 500 | 250 (≈ 84.6 µg/mL) | 250 (≈ 84.6 µg/mL) | 4.08 | 22.1 ± 0.55 | 250 (≈ 84.6 µg/mL) | 250 (≈ 84.6 µg/mL) | 250 (≈ 84.6 µg/mL) | 250 (≈ 84.6 µg/mL) | > 500 | > 500 | 500 (≈ 169 µg/mL) | 500 (≈ 169 µg/mL) | 500 (≈ 169 µg/mL) | 500 (≈ 169 µg/mL) | 250 (≈ 84.6 µg/mL) | 250 (≈ 84.6 µg/mL) | 250 (≈ 84.6 µg/mL) | 250 (≈ 84.6 µg/mL) | < 20 µM and 5.42 µM | MIC [1, 17]: > 500 µM; MIC [3, 20]: 125 µM (≈ 42.3 µg/mL); MIC [3, 21]: 125 µM (≈ 42.3 µg/mL); MIC [4, 22]: 500 µM (≈ 169 µg/mL); MIC [4, 23]: 500 µM (≈ 169 µg/mL); MIC (Candida krusei ATCC 6258; [24]): 500 µM (≈ 169 µg/mL); MIC (Candida krusei ATCC 6258; [25]): 500 µM (≈ 169 µg/mL); MIC [10, 33]: 500 µM (≈ 169 µg/mL); MIC [10, 34]: 500 µM (≈ 169 µg/mL)
N=C(NN)NN [1,3-diaminoguanidine, reference compound] |  |  |  | 0.15 |  |  |  |  |  |  |  |  |  |  |  |  |  |  |  | 283 ± 8.94 µM | IC50 [5]: 41.71 ± 0.23 µM; Cytotoxicity in HepG2 in words (HepG2 cells; range of tested concentrations up to 500 µM): no significant cytotoxicity
NNC(N)=O [semicarbazide, reference compound] |  |  |  | 0.13 |  |  |  |  |  |  |  |  |  |  |  |  |  |  |  |  | IC50 ([5]; read-out: IC50 AChE): 48.1 ± 0.84 µM; Cytotoxicity in HepG2 in words (HepG2 cells): no significant cytotoxicity; IC50 [14]: 365 ± 16.8 µM
N=C(N)NN [aminoguanidine, hydrazinecarboximidamide, reference compound] |  |  |  | 0.23 |  |  |  |  |  |  |  |  |  |  |  |  |  |  |  |  | IC50 ([5]; read-out: IC50 AChE): 75.14 ± 0.74 µM; Cytotoxicity in HepG2 in words (HepG2 cells): no significant cytotoxicity; IC50 [14]: 327 ± 18 µM
NNC(N)=S [thiosemicarbazide, reference compound] |  |  |  | 0.14 |  |  |  |  |  |  |  |  |  |  |  |  |  |  |  |  | IC50 ([5]; read-out: IC50 AChE): 46.1 ± 1.1 µM; Cytotoxicity in HepG2 in words (HepG2 cells): no significant cytotoxicity; IC50 [14]: 327.8 ± 3.22 µM
